# Experiment: LPO-CC Kamiya Bioscience kit anti-oxidant efficacy assay (methylene blue, optical density at 674 nm)
# Type: biochemical
# Conditions: simple composition containing 1.0% by weight of active; compared with 1.0% vitamin E; FIG. 1; lower optical density at 674 nm = better efficacy
# Text: Reaction processes in the kit used can be summarized as follows. Cumene hydroperoxide (CHO) is combined with an enzyme mixture of ascorbic oxidase and lipoprotein lipase in order to produce lipid peroxide. Samples and standards are then combined with a second reagent containing methyl carbamate (MCDP) and hemoglobin. In the presence of hemoglobin, lipid peroxides are converted to lipid alcohols which in turn convert the MCDP to methylene blue that can be read at 674 nm. This translates to decreased color intensity which is measured by spectroscopy at 674 nm. […] In other words, the lower the optical density reading the better the anti-oxidant efficacy.
smiles,measurement,value
"O=c1c(O)c(-c2ccc(O)cc2O)oc2cc(O)cc(O)c12 [morin, 2′,3,4′,5,7-pentahydroxyflavone]",anti-oxidative efficacy,anti-oxidative efficacy as good as positive control vitamin E

# Reference: US20070092454A1, “Oral composition containing morin” (Colgate-Palmolive Company, priority 2005, published 2007)
